Experimental data: ChEMBL document CHEMBL1148480, “Structure-activity studies of orexin a and orexin B at the human orexin 1 and orexin 2 receptors led to orexin 2 receptor selective and orexin 1 receptor preferring ligands” (J Med Chem, 2004)
Residues, ends and D or L forms follow the SMILES beside them.

Experiments:
[1] = target: T1, Orexin/Hypocretin receptor type 1 (Homo sapiens, UniProt O43613); experiment: Effective agonist concentration to human orexin receptor type 1 determined using the Xlfit program; assay type: functional
T1 sequence (O43613 whole entry): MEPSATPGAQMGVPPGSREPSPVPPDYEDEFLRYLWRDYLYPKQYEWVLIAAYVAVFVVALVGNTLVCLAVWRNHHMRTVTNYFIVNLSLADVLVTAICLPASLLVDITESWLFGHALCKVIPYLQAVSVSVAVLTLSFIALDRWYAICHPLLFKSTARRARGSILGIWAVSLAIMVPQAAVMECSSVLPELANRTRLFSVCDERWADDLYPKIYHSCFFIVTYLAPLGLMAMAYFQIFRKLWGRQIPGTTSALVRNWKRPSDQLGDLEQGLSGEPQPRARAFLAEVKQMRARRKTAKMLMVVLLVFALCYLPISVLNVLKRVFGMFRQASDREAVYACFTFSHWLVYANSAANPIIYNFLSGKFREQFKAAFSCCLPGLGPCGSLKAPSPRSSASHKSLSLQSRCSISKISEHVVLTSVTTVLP

[2] = Ratio of orexin-1 receptor to orexin-2 receptor in human
Orexin receptor type 2 = target: T2, Orexin receptor type 2 (Homo sapiens, UniProt O43614); experiment: Effective agonist concentration to the human Orexin receptor type 2 was determined using the Xlfit program; assay type: functional
T2 sequence (O43614 whole entry): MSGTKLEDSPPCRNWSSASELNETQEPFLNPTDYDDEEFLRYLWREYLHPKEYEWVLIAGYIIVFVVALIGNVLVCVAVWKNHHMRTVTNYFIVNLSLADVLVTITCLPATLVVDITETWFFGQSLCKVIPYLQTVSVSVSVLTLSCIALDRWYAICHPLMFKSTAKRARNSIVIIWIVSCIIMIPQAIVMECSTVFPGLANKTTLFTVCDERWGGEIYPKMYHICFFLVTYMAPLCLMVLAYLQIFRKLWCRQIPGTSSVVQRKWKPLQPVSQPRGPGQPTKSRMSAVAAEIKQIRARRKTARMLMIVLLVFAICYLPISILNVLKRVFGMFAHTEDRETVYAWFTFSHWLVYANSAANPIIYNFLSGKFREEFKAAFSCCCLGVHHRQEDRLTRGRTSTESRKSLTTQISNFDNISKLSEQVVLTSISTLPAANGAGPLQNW

Row | Compound | EC50 [1] [µM] | Ratio [2] | EC50 (Orexin receptor type 2) [µM]
1 | CC[C@H](C)[C@H](NC(=O)CNC(=O)[C@H](C)NC(=O)[C@H](C)NC(=O)[C@H](Cc1c[nH]cn1)NC(=O)[C@H](CC(N)=O)NC(=O)CNC(=O)[C@H](C)NC(=O)CNC(=O)[C@H](Cc1c[nH]cn1)NC(=O)[C@H](CC(C)C)NC(=O)[C@H](CC(C)C)NC(=O)[C@H](CCC(=O)O)NC(=O)[C@H](Cc1ccc(O)cc1)NC(=O)[C@H](CC(C)C)NC(=O)[C@H](CCCN=C(N)N)NC(=O)[C@H](CS)NC(=O)[C@H](CO)NC(=O)[C@H](CS)NC(=O)[C@@H](NC(=O)[C@H](CCCCN)NC(=O)[C@H](CCC(N)=O)NC(=O)[C@H](CCCN=C(N)N)NC(=O)[C@H](CS)NC(=O)[C@H](CS)NC(=O)[C@H](CC(=O)O)NC(=O)[C@@H]1CCCN1C(=O)[C@H](CC(C)C)NC(=O)[C@@H]1CCCN1)[C@@H](C)O)C(=O)N[C@@H](CC(C)C)C(=O)N[C@H](C(=O)N[C@@H](CC(C)C)C(=O)O)[C@@H](C)O | 0.86 | 0.3 | 2.51
2 | CC[C@H](C)[C@H](NC(=O)CNC(=O)[C@H](C)NC(=O)[C@H](C)NC(=O)[C@H](Cc1c[nH]cn1)NC(=O)[C@H](CC(N)=O)NC(=O)CNC(=O)[C@H](CO)NC(=O)[C@H](C)NC(=O)[C@H](CCC(N)=O)NC(=O)[C@H](CC(C)C)NC(=O)[C@H](CC(C)C)NC(=O)[C@H](CCCN=C(N)N)NC(=O)[C@H](CCC(N)=O)NC(=O)[C@H](CC(C)C)NC(=O)[C@H](CCCN=C(N)N)NC(=O)CNC(=O)[C@H](CCC(N)=O)NC(=O)[C@H](CC(C)C)NC(=O)CN)C(=O)N[C@@H](CC(C)C)C(=O)N[C@H](C(=O)N1CCC[C@H]1C(=O)O)[C@@H](C)O (H-GLQGRLQRLLQASGNHAAGILTP-OH) | > 1000 | > 275 | 3.63
3 | CC[C@H](C)[C@H](NC(=O)[C@@H]1CCCN1C(=O)[C@H](C)NC(=O)[C@H](C)NC(=O)[C@H](Cc1c[nH]cn1)NC(=O)[C@H](CC(N)=O)NC(=O)CNC(=O)[C@H](CO)NC(=O)[C@H](C)NC(=O)[C@H](CCC(N)=O)NC(=O)[C@H](CC(C)C)NC(=O)[C@H](CC(C)C)NC(=O)[C@H](CCCN=C(N)N)NC(=O)[C@H](CCC(N)=O)NC(=O)[C@H](CC(C)C)NC(=O)[C@H](CCCN=C(N)N)NC(=O)CNC(=O)[C@H](CCC(N)=O)NC(=O)[C@H](CC(C)C)NC(=O)CN)C(=O)N[C@@H](CC(C)C)C(=O)N[C@H](C(=O)N[C@@H](CCSC)C(=O)O)[C@@H](C)O (H-GLQGRLQRLLQASGNHAAPILTM-OH) | > 1000 | > 105 | 9.43
4 | CC[C@H](C)[C@H](NC(=O)CNC(=O)[C@H](C)NC(=O)[C@H](C)NC(=O)[C@H](Cc1c[nH]cn1)NC(=O)[C@H](CC(N)=O)NC(=O)CNC(=O)[C@H](CO)NC(=O)[C@H](C)NC(=O)[C@@H]1CCCN1C(=O)[C@H](CC(C)C)NC(=O)[C@H](CC(C)C)NC(=O)[C@H](CCCN=C(N)N)NC(=O)[C@H](CCC(N)=O)NC(=O)[C@H](CC(C)C)NC(=O)[C@H](CCCN=C(N)N)NC(=O)CNC(=O)[C@H](CCC(N)=O)NC(=O)[C@H](CC(C)C)NC(=O)CN)C(=O)N[C@@H](CC(C)C)C(=O)N[C@H](C(=O)N[C@@H](CCSC)C(=O)O)[C@@H](C)O (H-GLQGRLQRLLPASGNHAAGILTM-OH) | 9.49 | 3.8 | 2.48
5 | CC[C@H](C)[C@H](NC(=O)CNC(=O)[C@H](C)NC(=O)[C@H](C)NC(=O)[C@H](Cc1c[nH]cn1)NC(=O)[C@H](CC(N)=O)NC(=O)CNC(=O)[C@H](CO)NC(=O)[C@H](C)NC(=O)[C@H](CCC(N)=O)NC(=O)[C@@H]1CCCN1C(=O)[C@H](CC(C)C)NC(=O)[C@H](CCCN=C(N)N)NC(=O)[C@H](CCC(N)=O)NC(=O)[C@H](CC(C)C)NC(=O)[C@H](CCCN=C(N)N)NC(=O)CNC(=O)[C@H](CCC(N)=O)NC(=O)[C@H](CC(C)C)NC(=O)CN)C(=O)N[C@@H](CC(C)C)C(=O)N[C@H](C(=O)N[C@@H](CCSC)C(=O)O)[C@@H](C)O (H-GLQGRLQRLPQASGNHAAGILTM-OH) | > 1000 | > 50 | 20.1

Stronger by EC50 (Orexin receptor type 2), values ahead:

Row | EC50 [1] [µM] | Ratio [2] | EC50 (Orexin receptor type 2) [µM] | Compound
6 | 5.89 | 2.6 | 2.28 | CC[C@H](C)[C@H](NC(=O)CNC(=O)[C@H](C)NC(=O)[C@H](C)NC(=O)[C@H](Cc1c[nH]cn1)NC(=O)[C@H](CC(N)=O)NC(=O)CNC(=O)[C@H](CO)NC(=O)[C@H](C)NC(=O)[C@H](CCC(N)=O)NC(=O)[C@H](CC(C)C)NC(=O)[C@H](C)NC(=O)[C@H](CCCN=C(N)N)NC(=O)[C@H](CCC(N)=O)NC(=O)[C@H](CC(C)C)NC(=O)[C@H](CCCN=C(N)N)NC(=O)CNC(=O)[C@H](CCC(N)=O)NC(=O)[C@H](CC(C)C)NC(=O)CN)C(=O)N[C@@H](CC(C)C)C(=O)N[C@H](C(=O)N[C@@H](CCSC)C(=O)O)[C@@H](C)O (H-GLQGRLQRALQASGNHAAGILTM-OH)
7 | > 1000 | > 1350 | 0.76 | CC[C@H](C)[C@H](NC(=O)CNC(=O)[C@H](C)NC(=O)[C@H](C)NC(=O)[C@H](Cc1c[nH]cn1)NC(=O)[C@H](CC(N)=O)NC(=O)CNC(=O)[C@H](CO)NC(=O)[C@H](C)NC(=O)[C@H](CCC(N)=O)NC(=O)[C@H](CC(C)C)NC(=O)[C@H](CC(C)C)NC(=O)[C@H](CCCN=C(N)N)NC(=O)[C@H](CCC(N)=O)NC(=O)[C@H](CC(C)C)NC(=O)[C@H](CCCN=C(N)N)NC(=O)CNC(=O)[C@H](CCC(N)=O)NC(=O)[C@H](CC(C)C)NC(=O)CN)C(=O)N[C@@H](CC(C)C)C(=O)N[C@@H](C)C(=O)N[C@@H](CCSC)C(=O)O (H-GLQGRLQRLLQASGNHAAGILAM-OH)
8 | 4.84 | 6.5 | 0.75 | CC[C@H](C)[C@H](NC(=O)CNC(=O)[C@H](C)NC(=O)[C@H](C)NC(=O)[C@H](Cc1c[nH]cn1)NC(=O)[C@H](CC(N)=O)NC(=O)CNC(=O)[C@H](CO)NC(=O)[C@H](C)NC(=O)[C@H](CCC(N)=O)NC(=O)[C@H](CC(C)C)NC(=O)[C@H](CC(C)C)NC(=O)[C@H](CCCN=C(N)N)NC(=O)[C@H](CCC(N)=O)NC(=O)[C@H](CC(C)C)NC(=O)[C@H](CCCN=C(N)N)NC(=O)CNC(=O)[C@H](CCC(N)=O)NC(=O)[C@H](CC(C)C)NC(=O)CN)C(=O)N[C@@H](CC(C)C)C(=O)N[C@H](C(=O)N[C@@H](C)C(=O)O)[C@@H](C)O (H-GLQGRLQRLLQASGNHAAGILTA-OH)
9 | 8.77 | 13.9 | 0.63 | CC[C@H](C)[C@H](NC(=O)CNC(=O)[C@H](C)NC(=O)[C@H](C)NC(=O)[C@H](Cc1c[nH]cn1)NC(=O)[C@H](CC(N)=O)NC(=O)CNC(=O)[C@H](CO)NC(=O)[C@H](C)NC(=O)[C@H](CCC(N)=O)NC(=O)[C@H](CC(C)C)NC(=O)[C@H](CC(C)C)NC(=O)[C@H](CCCN=C(N)N)NC(=O)[C@H](CCC(N)=O)NC(=O)[C@H](CC(C)C)NC(=O)[C@H](CCCN=C(N)N)NC(=O)CNC(=O)[C@H](CCC(N)=O)NC(=O)[C@H](CC(C)C)NC(=O)CN)C(=O)N1CCC[C@H]1C(=O)N[C@H](C(=O)N[C@@H](CCSC)C(=O)O)[C@@H](C)O (H-GLQGRLQRLLQASGNHAAGIPTM-OH)
10 | 8.28 | 16.9 | 0.49 | CC[C@H](C)[C@H](NC(=O)CNC(=O)[C@H](C)NC(=O)[C@H](C)NC(=O)[C@H](Cc1c[nH]cn1)NC(=O)[C@H](CC(N)=O)NC(=O)CNC(=O)[C@H](CO)NC(=O)[C@H](C)NC(=O)[C@H](CCC(N)=O)NC(=O)[C@H](CC(C)C)NC(=O)[C@H](CC(C)C)NC(=O)[C@H](CCCN=C(N)N)NC(=O)[C@H](CCC(N)=O)NC(=O)[C@H](CC(C)C)NC(=O)[C@H](CCCN=C(N)N)NC(=O)CNC(=O)[C@H](CCC(N)=O)NC(=O)[C@H](CC(C)C)NC(=O)[C@@H]1CCCN1)C(=O)N[C@@H](CC(C)C)C(=O)N[C@H](C(=O)N[C@@H](CCSC)C(=O)O)[C@@H](C)O (H-PLQGRLQRLLQASGNHAAGILTM-OH)
11 |  | 11 | 0.21 | CC[C@H](C)[C@H](NC(=O)CNC(=O)[C@H](C)NC(=O)[C@H](C)NC(=O)[C@H](Cc1c[nH]cn1)NC(=O)[C@H](CC(N)=O)NC(=O)CNC(=O)[C@H](CO)NC(=O)[C@H](C)NC(=O)[C@H](CCC(N)=O)NC(=O)[C@H](CC(C)C)NC(=O)[C@H](CC(C)C)NC(=O)[C@H](CCCN=C(N)N)NC(=O)[C@H](CCC(N)=O)NC(=O)[C@H](CC(C)C)NC(=O)[C@H](CCCN=C(N)N)NC(=O)[C@H](C)NC(=O)[C@H](CCC(N)=O)NC(=O)[C@H](CC(C)C)NC(=O)CN)C(=O)N[C@@H](CC(C)C)C(=O)N[C@H](C(=O)N[C@@H](CCSC)C(=O)O)[C@@H](C)O (H-GLQARLQRLLQASGNHAAGILTM-OH)
